Where a SMILES comes first, the peptide text is derived from it.
Target: SARS2 M^pro (Severe acute respiratory syndrome coronavirus 2, UniProt P0DTD1, P3395H)
Type: biochemical, SARS-CoV-2

Structure (SMILES): CCOC(=O)c1ccc(NC(=O)N2CCc3ccccc32)cc1 [MWAC-0001787, CCOC(=O)c1ccc(NC(=O)N2CCc3ccccc23)cc1]
- % inhibition (20 µM) biochemical: 3.21%

Structure (SMILES): Cc1ccc(COc2ccc([N+](=O)[O-])cc2C=O)cc1 [MWAC-0001790, Cc1ccc(COc2ccc(cc2C=O)[N+](=O)[O-])cc1]
- % inhibition (20 µM) biochemical: 7%

Structure (SMILES): O=C(CCl)NC(NC(=O)CCl)c1ccccc1F [MWAC-0001862, Fc1ccccc1C(NC(=O)CCl)NC(=O)CCl]
- % inhibition (20 µM) biochemical: 40%

Structure (SMILES): CCOc1ccccc1C1Nc2ccccc2NC2=C1C(=O)CC(c1ccc3c(c1)OCO3)C2 (centres unmarked) [MWAC-0001720, CCOc1ccccc1C2Nc3ccccc3NC4=C2C(=O)CC(C4)c5ccc6OCOc6c5]
- % inhibition (20 µM) biochemical: 0%

Structure (SMILES): CCOC(=O)C(=O)Nc1sc(C(=O)Nc2cccc(Cl)c2)c(C)c1C(=O)OC [MWAC-0001843, CCOC(=O)C(=O)Nc1sc(C(=O)Nc2cccc(Cl)c2)c(C)c1C(=O)OC]
- % inhibition (20 µM) biochemical: 5.71%

Structure (SMILES): CN1C(=O)C(=Cc2cc(O)ccc2Br)C(=O)N(C)C1=O [MWAC-0001799, CN1C(=O)N(C)C(=O)C(=Cc2cc(O)ccc2Br)C1=O]
- % inhibition (20 µM) biochemical: 5.42%

Structure (SMILES): CCN(CC)c1ccc(/C=N/n2c(S)nnc2-c2cccnc2)c(O)c1 [MWAC-0001796, CCN(CC)c1ccc(\C=N\n2c(S)nnc2c3cccnc3)c(O)c1]
- % inhibition (20 µM) biochemical: 9%

Structure (SMILES): COc1ccc(C2=NN3C(C2)c2ccccc2OC3c2ccc(C(C)(C)C)cc2)cc1 (centres unmarked) [MWAC-0001719, COc1ccc(cc1)C2=NN3C(C2)c4ccccc4OC3c5ccc(cc5)C(C)(C)C]
- % inhibition (20 µM) biochemical: 5%

Structure (SMILES): Cc1ccc2nc(-c3ccc(NC(=O)CCOc4ccccc4)cc3)sc2c1 [MWAC-0001713, Cc1ccc2nc(sc2c1)c3ccc(NC(=O)CCOc4ccccc4)cc3]
- % inhibition (20 µM) biochemical: 14%

Structure (SMILES): Nc1c(C(=O)c2ccccc2)sc2nc3c(cc12)CCC3 [MWAC-0001815, Nc1c(sc2nc3CCCc3cc12)C(=O)c4ccccc4]
- % inhibition (20 µM) biochemical: 27%

Structure (SMILES): COc1ccc(C2(C)CC(C)(C)N(C(C)=O)c3ccccc32)cc1 (centres unmarked) [MWAC-0001751, COc1ccc(cc1)C2(C)CC(C)(C)N(C(=O)C)c3ccccc23]
- % inhibition (20 µM) biochemical: 4.45%

Structure (SMILES): O=C1NC(=O)C(=Cc2cc(Br)ccc2OCc2cccc(F)c2)C(=O)N1 [MWAC-0001793, Fc1cccc(COc2ccc(Br)cc2C=C3C(=O)NC(=O)NC3=O)c1]
- % inhibition (20 µM) biochemical: 4%

Structure (SMILES): N#C/C(=C\c1c[nH]c2ccccc12)C(=O)NC1CC1 [MWAC-0001828, O=C(NC1CC1)\C(=C\c2c[nH]c3ccccc23)\C#N]
- % inhibition (20 µM) biochemical: 11%

Structure (SMILES): Cc1ccccc1-c1noc(-c2ccc(O)cc2)n1 [MWAC-0001749, Cc1ccccc1c2noc(n2)c3ccc(O)cc3]
- % inhibition (20 µM) biochemical: 9%

Structure (SMILES): CC1=CC(C)(C)N2C(=O)C(=O)c3cc(OC(=O)c4cccc(F)c4)cc1c32 [MWAC-0001768, CC1=CC(C)(C)N2C(=O)C(=O)c3cc(OC(=O)c4cccc(F)c4)cc1c23]
- % inhibition (20 µM) biochemical: 2.41%

Structure (SMILES): Cc1ccccc1C(=O)Nc1ccc(Br)cc1 [MWAC-0001804, Cc1ccccc1C(=O)Nc2ccc(Br)cc2]
- % inhibition (20 µM) biochemical: 2.44%

Structure (SMILES): CCN1C(=O)C(=O)c2cc(Cl)ccc21 [MWAC-0001750, CCN1C(=O)C(=O)c2cc(Cl)ccc12]
- % inhibition (20 µM) biochemical: 10%

Structure (SMILES): NC(=O)c1ccccc1NC(=O)/C=C/C(=O)O [MWAC-0001765, NC(=O)c1ccccc1NC(=O)\C=C\C(=O)O]
- % inhibition (20 µM) biochemical: 6.4%

Structure (SMILES): O=C1NC(=S)NC(=O)C1=Cc1cccc(OS(=O)(=O)c2ccc3ccccc3c2)c1 [MWAC-0001766, O=C1NC(=S)NC(=O)C1=Cc2cccc(OS(=O)(=O)c3ccc4ccccc4c3)c2]
- % inhibition (20 µM) biochemical: 15%

Structure (SMILES): C=CCN1C(=O)C(O)(CC(=O)c2ccc(Cl)s2)c2cc(Br)ccc21 (centres unmarked) [MWAC-0001788, OC1(CC(=O)c2ccc(Cl)s2)C(=O)N(CC=C)c3ccc(Br)cc13]
- % inhibition (20 µM) biochemical: 7.53%

Structure (SMILES): CC(=O)Nc1cccc(-c2nc3cc(Cl)ccc3o2)c1 [MWAC-0001758, CC(=O)Nc1cccc(c1)c2oc3ccc(Cl)cc3n2]
- % inhibition (20 µM) biochemical: 14%

Structure (SMILES): Cc1ccccc1OCCOc1ccccc1/C=N/n1cnnc1 [MWAC-0001810, Cc1ccccc1OCCOc2ccccc2\C=N\n3cnnc3]
- % inhibition (20 µM) biochemical: 5%

Structure (SMILES): O=C1/C(=C/c2ccc(F)cc2)SC(=S)N1Cc1cccnc1 [MWAC-0001802, Fc1ccc(\C=C\2/SC(=S)N(Cc3cccnc3)C2=O)cc1]
- % inhibition (20 µM) biochemical: 7%

Structure (SMILES): CCOC(=O)c1[nH]c(C)c(C(=O)Nc2ccccc2SC)c1C [MWAC-0001737, CCOC(=O)c1[nH]c(C)c(C(=O)Nc2ccccc2SC)c1C]
- % inhibition (20 µM) biochemical: 3.56%

Structure (SMILES): Cc1ccc2nc(NC(=O)c3ccc(S(C)(=O)=O)c([N+](=O)[O-])c3)sc2c1 [MWAC-0001829, Cc1ccc2nc(NC(=O)c3ccc(c(c3)[N+](=O)[O-])S(=O)(=O)C)sc2c1]
- % inhibition (20 µM) biochemical: 64%

Structure (SMILES): O=C(CCl)NC(c1ccccc1)c1ccc(Cl)cc1 (centres unmarked) [MWAC-0001861, ClCC(=O)NC(c1ccccc1)c2ccc(Cl)cc2]
- % inhibition (20 µM) biochemical: 67%

Structure (SMILES): O=C(Nc1ccccc1O)c1ccc(Cl)c([N+](=O)[O-])c1 [MWAC-0001814, Oc1ccccc1NC(=O)c2ccc(Cl)c(c2)[N+](=O)[O-]]
- % inhibition (20 µM) biochemical: 2.59%

Structure (SMILES): O=C1/C(=C/c2ccc3c(c2)OCO3)SC(=S)N1Cc1cccnc1 [MWAC-0001792, O=C1N(Cc2cccnc2)C(=S)S/C/1=C\c3ccc4OCOc4c3]
- % inhibition (20 µM) biochemical: 14%

Structure (SMILES): COc1ccc(C=O)cc1OS(=O)(=O)c1ccc(C)cc1 [MWAC-0001771, COc1ccc(C=O)cc1OS(=O)(=O)c2ccc(C)cc2]
- % inhibition (20 µM) biochemical: 3.71%

Structure (SMILES): O=C(Nc1nc2ccccc2[nH]1)c1ccc(Br)o1 [MWAC-0001805, Brc1oc(cc1)C(=O)Nc2nc3ccccc3[nH]2]
- % inhibition (20 µM) biochemical: 9%

Structure (SMILES): CCc1cccc2c(/C=C3\C(=O)Nc4ccccc43)c[nH]c12 [MWAC-0001851, CCc1cccc2c(\C=C\3/C(=O)Nc4ccccc34)c[nH]c12]
- % inhibition (20 µM) biochemical: 2.36%

Structure (SMILES): COc1ccccc1Nc1nc(-c2ccccn2)cs1 [MWAC-0001885, COc1ccccc1Nc2nc(cs2)c3ccccn3]
- % inhibition (20 µM) biochemical: 0%

Structure (SMILES): Cc1cc(C(=O)COn2nnc3ccccc32)c(C)n1-c1ccc2c(c1)OCO2 [MWAC-0001845, Cc1cc(C(=O)COn2nnc3ccccc23)c(C)n1c4ccc5OCOc5c4]
- % inhibition (20 µM) biochemical: 20%

Structure (SMILES): O=C(CCCN1C(=O)/C(=C\c2ccco2)SC1=S)Nc1cc(Cl)ccc1O [MWAC-0000351, Oc1ccc(Cl)cc1NC(=O)CCCN2C(=S)S\C(=C\c3occc3)\C2=O]
- % inhibition (20 µM) biochemical: 2.86%

Structure (SMILES): Fc1nc(F)c(F)c(SC(=S)N2CCOCC2)c1F [MWAC-0001725, Fc1nc(F)c(F)c(SC(=S)N2CCOCC2)c1F]
- % inhibition (20 µM) biochemical: 3.69%

Structure (SMILES): COc1cc(OC)cc(C(=O)Nc2ccc(OC(C)C)cc2)c1 [MWAC-0001801, COc1cc(OC)cc(c1)C(=O)Nc2ccc(OC(C)C)cc2]
- % inhibition (20 µM) biochemical: 5%

Structure (SMILES): O=C(NNC(=O)C(c1ccccc1)c1ccccc1)Nc1cccc(Cl)c1 [MWAC-0001779, Clc1cccc(NC(=O)NNC(=O)C(c2ccccc2)c3ccccc3)c1]
- % inhibition (20 µM) biochemical: 3%

Structure (SMILES): C#CCN1C(=O)C(O)(CC(=O)c2ccc(Cl)cc2)c2ccccc21 (centres unmarked) [MWAC-0001731, OC1(CC(=O)c2ccc(Cl)cc2)C(=O)N(CC#C)c3ccccc13]
- % inhibition (20 µM) biochemical: 5%

Structure (SMILES): COc1cc(CSc2nnc[nH]2)c(OC)cc1CSc1nnc[nH]1 [MWAC-0001824, COc1cc(CSc2nnc[nH]2)c(OC)cc1CSc3nnc[nH]3]
- % inhibition (20 µM) biochemical: 0%

Structure (SMILES): O=C1NC(=S)NC(=O)C1=Cc1ccccc1OS(=O)(=O)c1ccc2ccccc2c1 [MWAC-0001813, O=C1NC(=S)NC(=O)C1=Cc2ccccc2OS(=O)(=O)c3ccc4ccccc4c3]
- % inhibition (20 µM) biochemical: 4.38%

Structure (SMILES): COc1ccc(C(=O)Nc2ccccc2N)cc1 [MWAC-0001806, COc1ccc(cc1)C(=O)Nc2ccccc2N]
- % inhibition (20 µM) biochemical: 1%

Structure (SMILES): COc1cccc(NC(=O)Cn2c(=O)n(C)c(=O)n(-c3ccc(Oc4ccc(SC(F)(F)F)cc4)c(C)c3)c2=O)c1 [MWAC-0001087, COc1cccc(NC(=O)CN2C(=O)N(C)C(=O)N(C2=O)c3ccc(Oc4ccc(SC(F)(F)F)cc4)c(C)c3)c1]
- % inhibition (20 µM) biochemical: 3%

Structure (SMILES): COc1ccccc1-c1cc(C(F)(F)F)nc(S(=O)(=O)CCCC(=O)Nc2c(F)cc(F)cc2Br)n1 [MWAC-0001726, COc1ccccc1c2cc(nc(n2)S(=O)(=O)CCCC(=O)Nc3c(F)cc(F)cc3Br)C(F)(F)F]
- % inhibition (20 µM) biochemical: 43%

Structure (SMILES): CSCCC(C=O)NC(=O)C(CC(C)C)NC(=O)C(CC(C)C)NC(C)=O (stereo not drawn) [MWAC-0001889, CSCCC(NC(=O)C(CC(C)C)NC(=O)C(CC(C)C)NC(=O)C)C=O] (Ac-Leu-Leu-Met-aldehyde; configuration not given here)
- % inhibition (20 µM) biochemical: 99%

Structure (SMILES): Cc1ccc(Cc2cnc(NC(=O)c3cccs3)s2)cc1 [MWAC-0001882, Cc1ccc(Cc2cnc(NC(=O)c3cccs3)s2)cc1]
- % inhibition (20 µM) biochemical: 0%

Structure (SMILES): COc1cccc(Nc2ccc3ccccc3c2)c1 [MWAC-0001865, COc1cccc(Nc2ccc3ccccc3c2)c1]
- % inhibition (20 µM) biochemical: 0%

Structure (SMILES): COC(=O)c1ccc(C(=O)Nc2ccccc2N)cc1 [MWAC-0001884, COC(=O)c1ccc(cc1)C(=O)Nc2ccccc2N]
- % inhibition (20 µM) biochemical: 0%

Structure (SMILES): CCOc1cc(S(=O)(=O)N2c3ccccc3CC2C)ccc1Cl (centres unmarked) [MWAC-0001761, CCOc1cc(ccc1Cl)S(=O)(=O)N2C(C)Cc3ccccc23]
- % inhibition (20 µM) biochemical: 8%

Structure (SMILES): O=C(CC1(O)C(=O)Nc2ccc(I)cc21)c1cccs1 (centres unmarked) [MWAC-0001763, OC1(CC(=O)c2cccs2)C(=O)Nc3ccc(I)cc13]
- % inhibition (20 µM) biochemical: 6.56%

Structure (SMILES): O=Cc1cc(Cl)ccc1OCC(=O)Nc1ccc(F)cc1 [MWAC-0001783, Fc1ccc(NC(=O)COc2ccc(Cl)cc2C=O)cc1]
- % inhibition (20 µM) biochemical: 4%

Structure (SMILES): COc1ccccc1N1CCN(C(=O)CCl)CC1 [MWAC-0001823, COc1ccccc1N2CCN(CC2)C(=O)CCl]
- % inhibition (20 µM) biochemical: 98%

Structure (SMILES): O=C(Nc1ccc(-c2cscn2)cc1)C1CCCN(Cc2ccccc2)C1 (centres unmarked) [MWAC-0001767, O=C(Nc1ccc(cc1)c2cscn2)C3CCCN(Cc4ccccc4)C3]
- % inhibition (20 µM) biochemical: 3.2%

Structure (SMILES): CCOC(=O)CS(=O)(=O)c1ccc(C(=O)N2CCN(C(=O)c3ccco3)CC2)cc1[N+](=O)[O-] [MWAC-0001736, CCOC(=O)CS(=O)(=O)c1ccc(cc1[N+](=O)[O-])C(=O)N2CCN(CC2)C(=O)c3occc3]
- % inhibition (20 µM) biochemical: 14%
